Reference: US12692230B2, “(1 h-indol-5-yl)acrylamide derivatives as inhibitors of TEAD proteins and the hippo-YAP1/TAZ signaling cascade for the treatment of cancer” (Sanofi, priority 2020, dated 2026)

system: TEAD responsive promoter element (8XGTIIC-Luciferase; YAP1-TEAD and TAZ-TEAD activity); assay: TEAD-Luciferase reporter assay; type: cell-based; conditions: Homo sapiens; luciferase activity in tumor cell lines with stable integration of the 8XGTIIC-Luciferase construct; 10 doses between 1 and 10000 nM, 48 hrs
Description: TEAD-Luciferase Reporter Assay
Luciferase-based gene reporter assays were used, employing the TEAD responsive promoter element that are stably integrated to different human tumor cell lines in order to monitor YAP1-TEAD and TAZ-TEAD activity and to study YAP1/TAZ-TEAD activity modulation by small molecule compounds. Luciferase-based gene reporter assays employing the GAPDH promoter element and stably integrated to different human tumor cell lines are used as counter screen control cell lines.
Tumor cell lines with stable integration of the 8XGTIIC-Luciferase construct (Dupont et al., Nature 2011) or the GAPDH-Luciferase control plasmid, are seeded in culture medium in 96-well plates at a density of 8000 cells/well. Following an overnight incubation in a 37° C., 5% CO2 growth chamber, cells are treated with compounds described above at 10 doses ranging between 1 and 10000 nM for 48 hrs. After compound incubation, cells are lysed with Bright-Glo Luciferase Assay System (Promega E2620) and luciferase activity is measured using a luminescent plate reader.
The inhibitory activity of the compounds with respect to luciferase activity is given by the concentration which inhibits 50% of activity of non-treated cells. IC50s are determined with a nonlinear regression model on XLfit software analysis (IDBS, UK).

| SMILES | IC50 [nM] |
| --- | --- |
| C=CC(=O)Nc1ccc2c(ccn2-c2ccc(S(F)(F)(F)(F)F)cc2)c1 [Example 63, N-(1-(4-(pentafluoro-λ6-sulfanyl)phenyl)-1H-indol-5-yl)acrylamide] | 29 |
| C=CC(=O)Nc1ccc2c(ccn2CC2CCOCC2)c1 [Example 23, N-(1-((tetrahydro-2H-pyran-4-yl)methyl)-1H-indol-5-yl)acrylamide] | 369 |
| C=CC(=O)Nc1ccc2c(c1)c(C#N)cn2Cc1cccc(C(F)(F)F)c1 [Example 14, N-(3-cyano-1-(3-(trifluoromethyl)benzyl)-1H-indol-5-yl)acrylamide] | 236 |
